One block for each compound: values may come before it. Calls of active or inactive are those of the source. The rule behind the calls is not given here.
What was measured:
[1] = target: T1, Histone-lysine N-methyltransferase EZH2 (Homo sapiens, UniProt Q15910); assay: Inhibition of methyltransferase activity of human EZH2 using chicken oligonucleosomes as substrate by pull down assay
Target sequence in this assay (Q15910 whole entry): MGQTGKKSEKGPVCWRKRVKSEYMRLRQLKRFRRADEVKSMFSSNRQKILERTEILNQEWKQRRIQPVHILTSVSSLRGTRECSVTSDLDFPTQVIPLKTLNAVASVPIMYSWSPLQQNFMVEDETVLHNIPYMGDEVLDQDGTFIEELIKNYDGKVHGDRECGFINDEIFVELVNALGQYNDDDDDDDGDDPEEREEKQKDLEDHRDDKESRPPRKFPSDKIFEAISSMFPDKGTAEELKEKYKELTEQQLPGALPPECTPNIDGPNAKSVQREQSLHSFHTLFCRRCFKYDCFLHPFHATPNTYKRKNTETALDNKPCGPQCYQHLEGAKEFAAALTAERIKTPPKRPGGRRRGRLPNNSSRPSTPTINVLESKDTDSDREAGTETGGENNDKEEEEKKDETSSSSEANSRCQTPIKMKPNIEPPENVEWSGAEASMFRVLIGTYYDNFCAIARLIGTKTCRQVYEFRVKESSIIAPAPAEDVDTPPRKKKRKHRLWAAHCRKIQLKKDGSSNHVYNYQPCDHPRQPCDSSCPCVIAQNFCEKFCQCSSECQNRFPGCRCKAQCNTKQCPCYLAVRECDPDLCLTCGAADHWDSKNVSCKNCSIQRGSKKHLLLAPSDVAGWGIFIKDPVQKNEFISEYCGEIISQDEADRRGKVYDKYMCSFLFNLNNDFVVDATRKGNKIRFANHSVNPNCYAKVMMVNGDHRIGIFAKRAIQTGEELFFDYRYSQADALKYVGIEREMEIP

[2] = Aqueous solubility of the compound at pH 7; assay type: physicochemical
[3] = AUC in mouse at 2 mg/kg, iv and 10 mg/kg, po by LC-MS/MS analysis; assay type: ADME, organism-based; settings: in vivo
[4] = Volume of distribution at steady state in mouse at 2 mg/kg, iv and 10 mg/kg, po by LC-MS/MS analysis; assay type: ADME, organism-based; settings: in vivo, read-out: Vdss
[5] = Oral bioavailability in mouse at 10 mg/kg by LC-MS/MS analysis; assay type: ADME, organism-based; settings: in vivo
[6] = Clearance in mouse at 2 mg/kg, iv and 10 mg/kg, po by LC-MS/MS analysis; assay type: ADME, organism-based; settings: in vivo
[7] = target: T1, Histone-lysine N-methyltransferase EZH2; assay: Inhibition of methyltransferase activity of human EZH2 using chicken oligonucleosomes as substrate up to 10 uM by pull down assay
Target sequence in this assay (Q15910 whole entry, looked up): as the sequence (Q15910 whole entry) above

Compound: Cc1cc(C)c(CNC(=O)c2cc(N3CCNCC3)nc3c2cnn3C(C)C)c(=O)[nH]1
- IC50 [1]: 1600 nM
- solubility ([2]; buffer): soluble

Compound: Cc1cc(C)c(CNC(=O)c2cc(C)n(C3CCCCC3)c2C)c(=O)[nH]1
- IC50 [1]: 3400 nM
- solubility ([2]; aqueous, read-out: solubility): < 10 µM

Compound: Cc1cc(C)c(CNC(=O)c2cccc3c2nnn3C(C)C)c(=O)[nH]1
- IC50 [1]: > 50000 nM

Compound: CCN(c1cc(-c2ccc(CN3CCOCC3)cc2)cc(C(=O)NCc2c(C)cc(C)[nH]c2=O)c1C)C1CCOCC1 [TAZEMETOSTAT]
- AUC [3]: 2500 ng·h/mL
- Vd [4]: 1 L/kg
- bioavailability [5]: 55%
- clearance [6]: 13 mL/min/kg

Compound: CCN(c1cc(Cl)cc(C(=O)NCc2c(C)cc(C)nc2OC)c1C)C1CCOCC1
- inhibition [7]: inactive
- IC50 [1]: > 10000 nM

Compound: Cc1cc(C)c(CNC(=O)c2ccc3cnn(C4CCCC4)c3c2C)c(=O)[nH]1
- IC50 [1]: 6000 nM

Compound: CCn1ncc2c(C(=O)NCc3c(C)cc(C)[nH]c3=O)cc(C3=CC(C)(C)NC(C)(C)C3)nc21
- IC50 [1]: 5000 nM

Compound: Cc1cc(C)c(CNC(=O)c2cc(Br)nc3c2cnn3C2CCN(C(=O)C(C)(C)C)CC2)c(=O)[nH]1
- IC50 [1]: 50 nM

Compound: Cc1cc(C)c(CNC(=O)c2cc(-c3ccc(CN4CCOCC4)cc3)nc3c2cnn3C(C)C)c(=O)[nH]1
- solubility ([2]; buffer): soluble
- AUC [3]: 950 ng·h/mL
- Vd [4]: 1.5 L/kg
- bioavailability [5]: 41%
- clearance [6]: 35 mL/min/kg

Compound: Cc1cc(C)c(CNC(=O)c2cccc3c2ccn3C(C)C)c(=O)[nH]1
- IC50 [1]: 3100 nM

Compound: CCN(c1cc(Cl)cc(C(=O)NCc2c(C)cc(C)[nH]c2=O)c1C)C1CCOCC1
- AUC [3]: 680 ng·h/mL
- Vd [4]: 0.45 L/kg
- bioavailability [5]: 1.6%
- clearance [6]: 49 mL/min/kg

Compound: Cc1cc(C)c(CNC(=O)c2cc(Br)nc3c2cnn3C2CCNCC2)c(=O)[nH]1
- IC50 [1]: 2200 nM

Compound: CCN(c1cc(Cl)cc(C(=O)NCc2c(C)cc(C)[nH]c2=O)c1)C1CCOCC1
- IC50 [1]: 14000 nM

Compound: Cc1cc(C)c(CNC(=O)c2cc(-c3ccc(N4CCNCC4)nc3)nc3c2cnn3C(C)C)c(=O)[nH]1
- IC50 [1]: 200 nM
- solubility ([2]; buffer): soluble

Compound: Cc1cc(C)c(CNC(=O)c2ccc3cnn(C4CCCC4)c3c2)c(=O)[nH]1
- IC50 [1]: > 50000 nM

Compound: Cc1cc(C)c(CNC(=O)c2cccc3c2cnn3C(C)C)c(=O)[nH]1
- IC50 [1]: 1100 nM

Compound: Cc1cc(C)c(CNC(=O)c2cc(C(C)C)nc3c2cnn3C(C)C)c(=O)[nH]1
- IC50 [1]: 2300 nM
- solubility ([2]; buffer): soluble

Compound: Cc1cc(C)c(CNC(=O)c2cc(C3=CC(C)(C)NC(C)(C)C3)nc3c2cnn3C(C)C)c(=O)[nH]1
- IC50 [1]: 300 nM
- solubility ([2]; buffer): soluble

Compound: Cc1cc(C)c(CNC(=O)c2cc(Br)nc3c2cnn3C(C)C)c(=O)[nH]1
- IC50 [1]: 900 nM
- solubility ([2]; buffer): soluble

Other lines, results leading:

- IC50 [1]: 50 nM
Compound: Cc1cc(C)c(CNC(=O)c2cc(Br)nc3c2cnn3C2CCN(C(=O)N(C)C)CC2)c(=O)[nH]1

- IC50 [1]: 500 nM
- AUC [3]: 700 ng·h/mL
- Vd [4]: 1.3 L/kg
- bioavailability [5]: 0.5%
- clearance [6]: 24 mL/min/kg
Compound: Cc1cc(C)c(CNC(=O)c2cc(-c3ccc4c(c3)OCCO4)nc3c2cnn3C(C)C)c(=O)[nH]1

- IC50 [1]: 200 nM
Compound: Cc1cc(C)c(CNC(=O)c2cc(Br)nc3c2cnn3C2CCN(C(=O)OC(C)(C)C)CC2)c(=O)[nH]1

- IC50 [1]: > 50000 nM
Compound: Cc1cc(C)c(CNC(=O)c2ccc3cnn(C(C)C)c3c2)c(=O)[nH]1

- IC50 [1]: 39000 nM
Compound: Cc1cc(C)c(CNC(=O)c2cc(C3=CC(C)(C)NC(C)(C)C3)nc3c2cnn3C)c(=O)[nH]1

- AUC [3]: 350 ng·h/mL
- Vd [4]: 2.7 L/kg
- bioavailability [5]: 18%
- clearance [6]: 90 mL/min/kg
Compound: Cc1cc(C)c(CNC(=O)c2cc(Br)cc(N(C)C3CCOCC3)c2C)c(=O)[nH]1

- AUC [3]: 2500 ng·h/mL
- Vd [4]: 0.66 L/kg
- bioavailability [5]: 24%
- clearance [6]: 16 mL/min/kg
Compound: Cc1cc(C)c(CNC(=O)c2cc(-c3ccc(CN4CCOCC4)cc3)cc(N(C)C3CCCC3)c2C)c(=O)[nH]1

- AUC [3]: 2900 ng·h/mL
- Vd [4]: 0.49 L/kg
- bioavailability [5]: 47%
- clearance [6]: 11 mL/min/kg
Compound: Cc1cc(C)c(CNC(=O)c2cc(-c3ccc(CN4CCOCC4)cc3)cc3c2cnn3C2CCCC2)c(=O)[nH]1

- IC50 [1]: 2400 nM
- solubility ([2]; buffer): soluble
Compound: COc1cc(C(=O)NCc2c(C)cc(C)[nH]c2=O)c2cnn(C(C)C)c2n1

- IC50 [1]: 200 nM
Compound: CCN(c1ccc(Cl)c(C(=O)N(C)Cc2c(C)cc(C)[nH]c2=O)c1C)C1CCOCC1

- IC50 [1]: 22000 nM
Compound: Cc1cc(C)c(CNC(=O)c2ccc3c(cnn3C(C)C)c2)c(=O)[nH]1

- AUC [3]: 46 ng·h/mL
- Vd [4]: 0.97 L/kg
- bioavailability [5]: 2%
- clearance [6]: 18 mL/min/kg
Compound: Cc1cc(C)c(CNC(=O)c2cc(Br)cc(N(C)C3CCCC3)c2C)c(=O)[nH]1

- IC50 [1]: > 50000 nM
Compound: Cc1cc(C)c(CNC(=O)c2cccc3c2ncn3C(C)C)c(=O)[nH]1

- IC50 [1]: 700 nM
Compound: Cc1cc(C)c(CNC(=O)c2cc(Br)nc3c2cnn3C2CCOCC2)c(=O)[nH]1

- IC50 [1]: 3100 nM
- solubility ([2]; buffer): soluble
Compound: Cc1cc(C)c(CNC(=O)c2ccnc3c2cnn3C(C)C)c(=O)[nH]1
